Literature values as cited in patent publication US20110086369A1, “FLUORESCENT COMPOUNDS FOR THE DIAGNOSIS OF INFECTIONS, PRODUCTION METHOD, AND APPLICATIONS THEREOF” (priority 2008, published 2011).

System: Leishmania
Conditions: in Leishmania

SMILES: CCCCCCCCCCCCCCCCOP(=O)([O-])OCC[N+](C)(C)C [MT, hexadecylphosphocholine]
- intracellular concentration: values in the millimolar rank
